According to PMC3703888, “Integration of Different “-omics” Technologies Identifies Inhibition of the IGF1R-Akt-mTOR Signaling Cascade Involved in the Cytotoxic Effect of Shikonin against Leukemia Cells” (Evidence-based Complementary and Alternative Medicine : eCAM, 2013):
“Also recorded” adds a separate entry of the source.

Legend:
p-ribosomal protein S6 = assay: FlowCellect PI3K-mTOR signaling cascade assay (flow cytometry), p-ribosomal protein S6; type: cell-based; conditions: U937 cells, 0.3 μM shikonin, 24 h
Text: The FlowCellect PI3K-mTOR signaling cascade assay kit (Merck Millipore, Germany) was used to analyze the effect of shikonin on the PI3K-mTOR signaling pathway. The assay is based on two directly conjugated phospho-specific signaling antibodies against phosphorylated Akt and phosphorylated ribosomal S6 protein, which are both important signaling nodes of the mTOR cascade. The phosphorylation of Akt is indicative of the upstream PI3K signaling, marking the cells initiation into proliferation or cell survival. Phosphorylated-ribosomal S6 protein is indicative of downstream mTOR and p70S6K signaling leading to protein translation. The assay was performed according to the manufacture's protocol. Briefly, 1.5 × 10^6 U937 cells were treated with 0.3 μM shikonin or DMSO solvent control and incubated for 24 h. Subsequently, cells were fixed on ice for 20 min using the supplied fixation buffer. […] Subsequently, cells were measured in a LSR-Fortessa FACS analyzer (Becton-Dickinson, Germany) and shikonin fluorescence was compensated for the respective channels. For each sample, 1 × 10^4 cells were counted. The PerCP signal was measured with 488 nm excitation and detected using a 670/30 nm bandpass filter. The Alexa Fluor 488 signal was analyzed with 488 nm excitation and detected using a 530/30 nm bandpass filter. […] Cytographs were analyzed using FlowJo software (Celeza, Switzerland). […]

IGF1R = target: T1, IGF1R (Homo sapiens, UniProt P08069); assay: Radiometric protein kinase assay (33PanQinase Activity Assay); type: biochemical; conditions: purified IGF1R kinase, nonlinear regression
T1 construct: purchased ProQinase GmbH (Freiburg, Germany)
T1 sequence (P08069 31-1367): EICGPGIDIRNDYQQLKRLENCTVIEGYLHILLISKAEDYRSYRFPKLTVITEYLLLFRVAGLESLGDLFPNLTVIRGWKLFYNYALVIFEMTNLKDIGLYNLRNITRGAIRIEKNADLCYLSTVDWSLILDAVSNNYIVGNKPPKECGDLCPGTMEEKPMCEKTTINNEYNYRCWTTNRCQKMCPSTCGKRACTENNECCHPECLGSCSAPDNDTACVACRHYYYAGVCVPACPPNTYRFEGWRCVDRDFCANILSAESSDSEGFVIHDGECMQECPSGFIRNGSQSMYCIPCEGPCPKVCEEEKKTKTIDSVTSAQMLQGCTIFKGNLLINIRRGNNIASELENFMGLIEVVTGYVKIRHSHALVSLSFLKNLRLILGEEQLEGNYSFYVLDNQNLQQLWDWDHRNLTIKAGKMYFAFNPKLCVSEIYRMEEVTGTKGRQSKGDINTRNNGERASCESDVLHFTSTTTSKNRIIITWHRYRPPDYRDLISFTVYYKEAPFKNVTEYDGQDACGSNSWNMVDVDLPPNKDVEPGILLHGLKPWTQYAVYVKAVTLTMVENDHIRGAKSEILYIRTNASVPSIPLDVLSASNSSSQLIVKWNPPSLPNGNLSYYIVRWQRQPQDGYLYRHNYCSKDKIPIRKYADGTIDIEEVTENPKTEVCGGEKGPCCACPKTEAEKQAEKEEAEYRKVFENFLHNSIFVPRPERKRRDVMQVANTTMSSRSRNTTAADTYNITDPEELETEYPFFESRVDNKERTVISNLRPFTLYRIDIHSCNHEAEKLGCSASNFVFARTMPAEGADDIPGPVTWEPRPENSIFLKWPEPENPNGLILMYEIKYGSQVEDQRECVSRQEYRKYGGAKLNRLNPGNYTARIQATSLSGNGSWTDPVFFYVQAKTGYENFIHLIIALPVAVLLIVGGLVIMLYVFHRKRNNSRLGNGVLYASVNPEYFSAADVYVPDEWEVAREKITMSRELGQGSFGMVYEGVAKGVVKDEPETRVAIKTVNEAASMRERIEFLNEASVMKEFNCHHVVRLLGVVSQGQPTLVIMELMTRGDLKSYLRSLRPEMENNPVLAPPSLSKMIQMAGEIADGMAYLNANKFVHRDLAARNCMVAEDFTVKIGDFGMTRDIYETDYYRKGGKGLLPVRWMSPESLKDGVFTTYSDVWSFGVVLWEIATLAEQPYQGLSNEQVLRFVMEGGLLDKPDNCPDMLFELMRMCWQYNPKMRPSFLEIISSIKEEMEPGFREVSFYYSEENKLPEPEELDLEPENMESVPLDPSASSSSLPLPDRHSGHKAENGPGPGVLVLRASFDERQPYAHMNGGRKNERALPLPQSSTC
Experimental: The kinase inhibition assay was performed by ProQinase GmbH (Freiburg, Germany). Shikonin was provided as 1.85 × 10^−3 M stock solution in DMSO. In the process, shikonin was serially diluted in semi-log steps with 100% DMSO in a 96-well microtiter plate. Directly before use, shikonin was further diluted 1 : 10 with water. Shikonin was tested at 10 final assay concentrations in the range from 1.85 × 10^−5 M to 5.55 × 10^−10 M. The final DMSO concentration in the reaction cocktails was 1% in all cases. A radiometric protein kinase assay (^33PanQinase Activity Assay) was used for measuring the kinase activity of IGF1R. All kinase assays were performed in 96-well FlashPlates from Perkin Elmer (Boston, MA, USA) in a 50 μL reaction volume. […] Incorporation of ^33Pi (counting of “cpm”) was determined with a Wallac MicroBeta scintillation counter (Perkin Elmer). […] Kinase activity was evaluated based on a comparison with experiments containing the complete reaction cocktail but no shikonin. A complete reaction cocktail without kinase served as control for unspecific binding of radioactivity to the plate in the absence of protein kinase but in the presence of shikonin. IC50 values were calculated by nonlinear regression using Prism 5.04 (Graphpad, CA, USA).

p-Akt = assay: FlowCellect PI3K-mTOR signaling cascade assay (flow cytometry), p-Akt; type: cell-based; conditions: 24 h
Text: The FlowCellect PI3K-mTOR signaling cascade assay kit (Merck Millipore, Germany) was used to analyze the effect of shikonin on the PI3K-mTOR signaling pathway. The assay is based on two directly conjugated phospho-specific signaling antibodies against phosphorylated Akt and phosphorylated ribosomal S6 protein, which are both important signaling nodes of the mTOR cascade. The phosphorylation of Akt is indicative of the upstream PI3K signaling, marking the cells initiation into proliferation or cell survival. Phosphorylated-ribosomal S6 protein is indicative of downstream mTOR and p70S6K signaling leading to protein translation. The assay was performed according to the manufacture's protocol. Briefly, 1.5 × 10^6 U937 cells were treated with 0.3 μM shikonin or DMSO solvent control and incubated for 24 h. Subsequently, cells were fixed on ice for 20 min using the supplied fixation buffer. After fixation, cells were washed twice and treated with permeabilization buffer on ice for 20 min. After two further washing steps, cells were resuspended in a final volume of 90 μL assay buffer and incubated with 5 μL 20x anti-phospho-ribosomal protein S6 (Ser235) PerCP conjugated monoclonal antibody and 5 μL 20x anti-phospho-Akt1/PKBα (Ser473) Alexa Fluor 488 conjugated monoclonal antibody in the dark on ice for one hour. After antibody incubation, cells were centrifuged and resuspended in 500 μL assay buffer. Subsequently, cells were measured in a LSR-Fortessa FACS analyzer (Becton-Dickinson, Germany) and shikonin fluorescence was compensated for the respective channels. For each sample, 1 × 10^4 cells were counted. The PerCP signal was measured with 488 nm excitation and detected using a 670/30 nm bandpass filter. The Alexa Fluor 488 signal was analyzed with 488 nm excitation and detected using a 530/30 nm bandpass filter. All parameters were plotted on a logarithmic scale. Cytographs were analyzed using FlowJo software (Celeza, Switzerland). All experiments were performed at least in triplicate. Student's t-test was used for statistical analysis.

U937 leukemia cells = assay: Resazurin reduction assay (cytotoxicity); type: cell-based; conditions: Homo sapiens, U-937, 24 h treatment, read-out: IC50 (inhibition of U937 proliferation by 50%)
Experimental: Resazurin reduction assay was performed to assess cytotoxicity of shikonin toward U937 cells. The assay is based on reduction of the indicator dye, resazurin, to the highly fluorescent resorufin by viable cells. Nonviable cells rapidly lose the metabolic capacity to reduce resazurin and thus produce no fluorescent signal. Briefly, aliquots of 2 × 10^4 U937 cells per well were seeded in 96-well plates in a total volume of 100 μL. Shikonin was immediately added in varying concentrations in an additional 100 μL of culture medium to obtain a total volume of 200 μL/well. After 24 h, 20 μL resazurin (Sigma-Aldrich, Germany) 0.01% w/v in ddH2O was added to each well and the plates were incubated at 37°C for 4 h. Fluorescence was measured on an Infinite M2000 Pro plate reader (Tecan, Germany) using an excitation wavelength of 544 nm and an emission wavelength of 590 nm. Each assay was done at least two times, with six replicates each. The viability was evaluated based on a comparison with untreated cells. IC50 value represents the shikonin concentrations required to inhibit 50% of cell proliferation and was calculated from a calibration curve by linear regression using Microsoft Excel.

[1] = cytograph p-Akt / p-ribosomal protein S6, U937 cells, 0.3 μM

SMILES: CC(C)=CC[C@@H](O)C1=CC(=O)c2c(O)ccc(O)c2C1=O [shikonin]
- Phosphorylation of ribosomal protein S6 (p-ribosomal protein S6): remained almost unchanged; also recorded: no effect
- IC50 (IGF1R): 2600 nM
- Phosphorylation of Akt (p-Akt; U937 cells, 0.3 μM shikonin): significantly inhibits; also recorded: significantly decreased
- Cells in quadrant Q1 (p-Akt; [1]): 27.2%
- Cells in quadrant Q2 (p-Akt; [1]): 61.4%
- Cells in quadrant Q3 (p-Akt; [1]): 1.10%
- Cells in quadrant Q4 (p-Akt; [1]): 10.3%
- IC50 (U937 leukemia cells): 300 nM
